Measured values as given in ChEMBL document CHEMBL5649166, “RIP3 induces apoptosis independent of pronecrotic kinase activity” (Mol Cell, 2014).
Calls of active or inactive are those of the source. The calls are words filed in the database; no cut-off is given here.

Key:
[1] = molecular target: Ribosomal protein S6 kinase alpha-2 (Homo sapiens) (UniProt Q15349); experiment: Inhibition of human RSK3 using KKLNRTLSVA as substrate at 1 uM in presence of 32P-ATP by Hotspot assay relative to control; values are per cent of control
[2] = molecular target: Serine/threonine-protein kinase PAK 6 (Homo sapiens) (UniProt Q9NQU5); experiment: Inhibition of human PAK6 using RRRLSFAEPG as substrate at 1 uM in presence of 32P-ATP by Hotspot assay relative to control; values are per cent of control
[3] = molecular target: Tyrosine-protein kinase Fer (Homo sapiens) (UniProt P16591); experiment: Inhibition of human FER using poly[Glu:Tyr] (4:1) as substrate at 1 uM in presence of 32P-ATP by Hotspot assay relative to control; values are per cent of control
[4] = molecular target: Mitogen-activated protein kinase 14 (Homo sapiens) (UniProt Q16539); experiment: Inhibition of human P38a/MAPK14 using myelin basic protein as substrate at 1 uM in presence of 32P-ATP by Hotspot assay relative to control; values are per cent of control
Homo sapiens = species on record: Homo sapiens; experiment: Inhibition of human PKA using LCGRTGRRNSI as substrate at 1 uM in presence of 32P-ATP by Hotspot assay relative to control; values are per cent of control
NIH3T3 = experiment: Inhibition of TNF-alpha induced necroptosis in mouse 3T3SA cells assessed as increase in cell viability at 0.04 to 1 uM incubated for 18 hrs in presence of zVAD by Cell Titer-Glo luminescent cell viability assay; format: functional, cell-based; conditions: dose 0.04-1 µM
[5] = molecular target: T1, Aurora kinase C (Homo sapiens) (UniProt Q9UQB9); experiment: Inhibition of human Aurora C using H-LRRASLG as substrate at 1 uM in presence of 32P-ATP by Hotspot assay relative to control; values are per cent of control
T1 sequence (whole entry): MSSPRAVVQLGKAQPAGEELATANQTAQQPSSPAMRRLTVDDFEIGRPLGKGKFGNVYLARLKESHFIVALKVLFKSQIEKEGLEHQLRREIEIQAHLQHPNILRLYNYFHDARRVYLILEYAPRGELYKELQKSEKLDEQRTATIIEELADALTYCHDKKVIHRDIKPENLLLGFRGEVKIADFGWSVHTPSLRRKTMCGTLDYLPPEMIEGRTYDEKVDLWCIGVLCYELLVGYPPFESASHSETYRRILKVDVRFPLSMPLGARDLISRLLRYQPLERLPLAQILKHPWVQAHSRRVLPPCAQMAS

[6] = molecular target: Dual specificity protein kinase CLK2 (Homo sapiens) (UniProt P49760); experiment: Inhibition of human CLK2 using myelin basic protein as substrate at 1 uM in presence of 32P-ATP by Hotspot assay relative to control; values are per cent of control
[7] = molecular target: Protein-tyrosine kinase 6 (Homo sapiens) (UniProt Q13882); experiment: Inhibition of human BRK using poly[Glu:Tyr] (4:1) as substrate at 1 uM in presence of 32P-ATP by Hotspot assay relative to control; values are per cent of control
[8] = molecular target: Serine/threonine-protein kinase pim-1 (Homo sapiens) (UniProt P11309); experiment: Inhibition of human PIM1 using RSRHSSYPAGT as substrate at 1 uM in presence of 32P-ATP by Hotspot assay relative to control; values are per cent of control
[9] = molecular target: Calcium/calmodulin-dependent protein kinase type 1 (Homo sapiens) (UniProt Q14012); experiment: Inhibition of human CAMK1a using KKALRRQETVDAL as substrate at 1 uM in presence of 32P-ATP by Hotspot assay relative to control; values are per cent of control
[10] = molecular target: Calcium/calmodulin-dependent protein kinase kinase 2 (Homo sapiens) (UniProt Q96RR4); experiment: Inhibition of human CAMKK2 using myelin basic protein as substrate at 1 uM in presence of 32P-ATP by Hotspot assay relative to control; values are per cent of control
[11] = molecular target: T2, Protein kinase C zeta type (Homo sapiens) (UniProt Q05513); experiment: Inhibition of human PKCzeta using ERMRPRKRQGSVRRRV as substrate at 1 uM in presence of 32P-ATP by Hotspot assay relative to control; values are per cent of control
T2 sequence (whole entry): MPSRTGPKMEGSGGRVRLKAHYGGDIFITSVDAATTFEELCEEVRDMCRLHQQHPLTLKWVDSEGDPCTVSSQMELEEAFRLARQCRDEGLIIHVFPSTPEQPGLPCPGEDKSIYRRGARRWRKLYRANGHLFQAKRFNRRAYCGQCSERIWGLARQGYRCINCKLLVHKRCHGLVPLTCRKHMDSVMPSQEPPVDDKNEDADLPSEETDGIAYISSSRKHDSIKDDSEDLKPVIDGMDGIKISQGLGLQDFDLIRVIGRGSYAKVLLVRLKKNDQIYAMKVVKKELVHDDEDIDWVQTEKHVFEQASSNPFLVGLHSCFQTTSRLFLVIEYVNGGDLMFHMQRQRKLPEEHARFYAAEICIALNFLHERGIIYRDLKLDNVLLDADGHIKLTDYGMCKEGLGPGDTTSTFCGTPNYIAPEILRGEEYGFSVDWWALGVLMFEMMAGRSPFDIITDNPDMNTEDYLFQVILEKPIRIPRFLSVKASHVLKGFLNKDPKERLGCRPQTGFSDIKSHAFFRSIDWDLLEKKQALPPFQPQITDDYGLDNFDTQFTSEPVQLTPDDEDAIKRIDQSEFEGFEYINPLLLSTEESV

Neutrophil = experiment: Inhibition of TNF-alpha induced necroptosis in human neutrophil cells assessed as increase in cell viability incubated for 18 hrs in presence of zVAD and SMAC007 by Cell Titer-Glo luminescent cell viability assay; format: functional, cell-based
[12] = molecular target: Homeodomain-interacting protein kinase 1 (Homo sapiens) (UniProt Q86Z02); experiment: Inhibition of human HIPK1 using myelin basic protein as substrate at 1 uM in presence of 32P-ATP by Hotspot assay relative to control; values are per cent of control
[13] = molecular target: RAC-alpha serine/threonine-protein kinase (Homo sapiens) (UniProt P31749); experiment: Inhibition of human AKT1 using KGSGSGRPRTSSFAEG as substrate at 1 uM in presence of 32P-ATP by Hotspot assay relative to control; values are per cent of control
[14] = molecular target: Serine/threonine-protein kinase 33 (Homo sapiens) (UniProt Q9BYT3); experiment: Inhibition of human STK33 using myelin basic protein as substrate at 1 uM in presence of 32P-ATP by Hotspot assay relative to control; values are per cent of control
Chain of Serine/threonine-protein kinase 33 (Homo sapiens) (Q9BYT3 whole entry, looked up): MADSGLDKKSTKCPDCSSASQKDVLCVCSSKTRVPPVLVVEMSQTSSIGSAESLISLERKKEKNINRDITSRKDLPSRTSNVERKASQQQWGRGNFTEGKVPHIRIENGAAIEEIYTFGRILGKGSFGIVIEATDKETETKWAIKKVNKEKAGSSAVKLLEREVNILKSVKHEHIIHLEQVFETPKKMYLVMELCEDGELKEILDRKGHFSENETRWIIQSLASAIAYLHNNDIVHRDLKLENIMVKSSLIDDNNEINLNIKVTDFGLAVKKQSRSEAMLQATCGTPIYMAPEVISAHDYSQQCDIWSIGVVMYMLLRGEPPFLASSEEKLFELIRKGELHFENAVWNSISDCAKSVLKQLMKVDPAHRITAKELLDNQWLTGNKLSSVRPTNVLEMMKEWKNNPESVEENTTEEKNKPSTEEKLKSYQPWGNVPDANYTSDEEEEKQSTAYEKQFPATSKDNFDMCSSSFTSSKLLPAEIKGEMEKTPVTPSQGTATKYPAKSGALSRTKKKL

Chain of Serine/threonine-protein kinase PAK 6 (Homo sapiens) (Q9NQU5 whole entry, looked up): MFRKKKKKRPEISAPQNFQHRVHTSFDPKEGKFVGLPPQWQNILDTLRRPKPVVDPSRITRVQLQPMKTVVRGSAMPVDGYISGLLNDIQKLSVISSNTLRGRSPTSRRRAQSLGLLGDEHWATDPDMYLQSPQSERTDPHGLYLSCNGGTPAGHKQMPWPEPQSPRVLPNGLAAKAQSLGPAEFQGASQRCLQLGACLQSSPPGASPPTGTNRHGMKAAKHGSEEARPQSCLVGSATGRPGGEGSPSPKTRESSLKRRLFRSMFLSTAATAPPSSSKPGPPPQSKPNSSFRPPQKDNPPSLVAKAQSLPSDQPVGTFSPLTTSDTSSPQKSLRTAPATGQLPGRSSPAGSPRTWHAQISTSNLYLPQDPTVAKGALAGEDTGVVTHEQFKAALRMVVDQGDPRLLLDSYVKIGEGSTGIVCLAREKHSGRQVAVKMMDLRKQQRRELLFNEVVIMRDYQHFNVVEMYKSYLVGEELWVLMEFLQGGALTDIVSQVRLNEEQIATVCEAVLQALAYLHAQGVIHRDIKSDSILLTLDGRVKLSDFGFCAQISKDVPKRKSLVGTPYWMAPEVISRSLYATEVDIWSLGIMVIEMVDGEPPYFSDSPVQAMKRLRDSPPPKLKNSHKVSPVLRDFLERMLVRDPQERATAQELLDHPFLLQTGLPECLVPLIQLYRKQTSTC
Chain of Homeodomain-interacting protein kinase 1 (Homo sapiens) (Q86Z02 whole entry, looked up): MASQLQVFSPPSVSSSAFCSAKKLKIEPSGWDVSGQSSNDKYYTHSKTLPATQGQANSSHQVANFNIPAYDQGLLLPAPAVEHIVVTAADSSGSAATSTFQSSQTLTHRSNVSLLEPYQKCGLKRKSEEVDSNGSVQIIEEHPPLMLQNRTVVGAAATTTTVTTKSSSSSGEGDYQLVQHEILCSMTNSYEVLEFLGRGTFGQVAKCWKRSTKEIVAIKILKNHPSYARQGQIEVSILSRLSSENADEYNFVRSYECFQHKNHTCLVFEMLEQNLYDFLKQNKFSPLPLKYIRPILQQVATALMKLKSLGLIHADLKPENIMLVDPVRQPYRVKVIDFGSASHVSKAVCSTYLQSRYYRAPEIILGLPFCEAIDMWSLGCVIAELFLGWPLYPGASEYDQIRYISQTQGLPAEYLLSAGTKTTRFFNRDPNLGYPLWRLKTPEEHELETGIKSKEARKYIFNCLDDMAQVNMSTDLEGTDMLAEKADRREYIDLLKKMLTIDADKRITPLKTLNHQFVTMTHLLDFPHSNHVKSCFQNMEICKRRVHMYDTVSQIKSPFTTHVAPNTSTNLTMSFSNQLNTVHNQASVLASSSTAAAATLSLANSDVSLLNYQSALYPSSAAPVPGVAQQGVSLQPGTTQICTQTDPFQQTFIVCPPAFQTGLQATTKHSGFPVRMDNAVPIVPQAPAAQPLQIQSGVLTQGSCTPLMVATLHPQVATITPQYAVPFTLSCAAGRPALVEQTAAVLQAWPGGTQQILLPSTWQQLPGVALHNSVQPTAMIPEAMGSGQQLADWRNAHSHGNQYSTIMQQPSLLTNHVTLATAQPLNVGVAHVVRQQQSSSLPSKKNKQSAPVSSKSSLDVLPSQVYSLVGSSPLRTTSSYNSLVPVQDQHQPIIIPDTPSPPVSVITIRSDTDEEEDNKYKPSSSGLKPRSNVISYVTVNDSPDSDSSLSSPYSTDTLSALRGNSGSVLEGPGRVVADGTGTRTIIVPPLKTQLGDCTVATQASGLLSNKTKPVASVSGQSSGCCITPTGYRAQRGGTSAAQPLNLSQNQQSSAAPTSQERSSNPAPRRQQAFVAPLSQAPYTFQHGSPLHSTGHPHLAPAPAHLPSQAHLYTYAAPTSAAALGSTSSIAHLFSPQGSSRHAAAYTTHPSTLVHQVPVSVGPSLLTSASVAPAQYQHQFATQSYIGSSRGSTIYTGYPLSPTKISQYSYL
Chain of RAC-alpha serine/threonine-protein kinase (Homo sapiens) (P31749 whole entry): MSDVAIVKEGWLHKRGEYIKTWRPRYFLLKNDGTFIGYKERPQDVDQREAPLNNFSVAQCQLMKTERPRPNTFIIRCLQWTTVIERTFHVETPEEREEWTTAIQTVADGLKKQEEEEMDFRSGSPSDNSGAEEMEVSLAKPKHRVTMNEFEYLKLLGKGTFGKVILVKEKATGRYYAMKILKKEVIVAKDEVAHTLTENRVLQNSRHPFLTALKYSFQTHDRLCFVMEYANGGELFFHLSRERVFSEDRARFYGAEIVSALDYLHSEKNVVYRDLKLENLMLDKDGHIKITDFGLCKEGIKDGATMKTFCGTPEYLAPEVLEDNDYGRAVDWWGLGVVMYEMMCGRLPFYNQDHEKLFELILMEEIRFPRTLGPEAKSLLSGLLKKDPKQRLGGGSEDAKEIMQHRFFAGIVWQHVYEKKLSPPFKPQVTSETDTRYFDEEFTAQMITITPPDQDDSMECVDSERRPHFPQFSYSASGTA
Chain of Tyrosine-protein kinase Fer (Homo sapiens) (P16591 whole entry, looked up): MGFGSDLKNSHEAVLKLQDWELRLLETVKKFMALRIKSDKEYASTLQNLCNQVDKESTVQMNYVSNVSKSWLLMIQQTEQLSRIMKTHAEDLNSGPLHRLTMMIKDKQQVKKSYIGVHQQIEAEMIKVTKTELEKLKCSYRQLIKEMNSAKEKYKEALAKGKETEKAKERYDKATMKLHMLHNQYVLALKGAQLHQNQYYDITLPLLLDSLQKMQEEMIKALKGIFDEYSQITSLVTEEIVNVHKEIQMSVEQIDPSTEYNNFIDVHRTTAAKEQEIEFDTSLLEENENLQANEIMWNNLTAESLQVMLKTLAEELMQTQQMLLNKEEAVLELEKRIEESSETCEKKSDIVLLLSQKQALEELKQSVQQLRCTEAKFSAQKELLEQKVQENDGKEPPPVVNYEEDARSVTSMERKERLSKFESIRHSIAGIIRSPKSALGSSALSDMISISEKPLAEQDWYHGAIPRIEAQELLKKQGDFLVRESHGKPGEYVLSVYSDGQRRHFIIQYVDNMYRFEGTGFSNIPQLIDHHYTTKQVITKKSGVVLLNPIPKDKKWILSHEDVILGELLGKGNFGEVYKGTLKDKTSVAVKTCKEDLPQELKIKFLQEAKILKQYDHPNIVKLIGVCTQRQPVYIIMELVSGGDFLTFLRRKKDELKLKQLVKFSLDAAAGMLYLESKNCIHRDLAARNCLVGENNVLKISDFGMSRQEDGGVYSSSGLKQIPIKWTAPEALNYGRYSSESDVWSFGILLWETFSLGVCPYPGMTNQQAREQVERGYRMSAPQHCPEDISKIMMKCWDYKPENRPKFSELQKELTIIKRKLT
Chain of Ribosomal protein S6 kinase alpha-2 (Homo sapiens) (Q15349 whole entry): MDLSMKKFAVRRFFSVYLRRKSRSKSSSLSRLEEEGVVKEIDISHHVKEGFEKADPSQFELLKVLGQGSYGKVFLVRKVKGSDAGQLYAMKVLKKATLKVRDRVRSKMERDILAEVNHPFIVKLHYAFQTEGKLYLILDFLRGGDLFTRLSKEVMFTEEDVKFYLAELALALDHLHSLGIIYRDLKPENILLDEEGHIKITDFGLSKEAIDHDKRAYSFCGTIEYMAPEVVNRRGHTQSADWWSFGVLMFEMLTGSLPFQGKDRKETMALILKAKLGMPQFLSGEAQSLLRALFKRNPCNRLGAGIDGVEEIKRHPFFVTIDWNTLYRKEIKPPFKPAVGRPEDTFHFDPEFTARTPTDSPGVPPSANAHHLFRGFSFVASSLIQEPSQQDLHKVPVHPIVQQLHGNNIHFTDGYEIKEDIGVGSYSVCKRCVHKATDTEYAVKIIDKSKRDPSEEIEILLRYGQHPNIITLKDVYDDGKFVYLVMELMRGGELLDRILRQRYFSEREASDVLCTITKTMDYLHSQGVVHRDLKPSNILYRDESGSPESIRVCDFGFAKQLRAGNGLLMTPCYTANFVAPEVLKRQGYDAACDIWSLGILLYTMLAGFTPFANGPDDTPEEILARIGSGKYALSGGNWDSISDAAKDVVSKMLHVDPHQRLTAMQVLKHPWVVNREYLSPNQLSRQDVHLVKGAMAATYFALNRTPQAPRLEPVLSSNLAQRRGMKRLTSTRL
Chain of Mitogen-activated protein kinase 14 (Homo sapiens) (Q16539 whole entry): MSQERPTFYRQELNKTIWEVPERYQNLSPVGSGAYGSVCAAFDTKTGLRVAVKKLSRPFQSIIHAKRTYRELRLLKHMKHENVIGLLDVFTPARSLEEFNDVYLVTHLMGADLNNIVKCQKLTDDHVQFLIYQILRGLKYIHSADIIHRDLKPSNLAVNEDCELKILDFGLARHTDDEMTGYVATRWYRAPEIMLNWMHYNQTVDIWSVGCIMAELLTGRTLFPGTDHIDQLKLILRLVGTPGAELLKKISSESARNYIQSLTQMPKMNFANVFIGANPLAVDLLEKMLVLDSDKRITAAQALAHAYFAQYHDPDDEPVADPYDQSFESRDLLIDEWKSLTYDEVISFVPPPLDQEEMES

| Structure (SMILES) | residual activity [1] [%] | residual activity [2] [%] | residual activity [3] [%] | residual activity [4] [%] | residual activity (Homo sapiens) [%] | inhibition (NIH3T3) | residual activity [5] [%] | residual activity [6] [%] | residual activity [7] [%] | residual activity [8] [%] | residual activity [9] [%] | residual activity [10] [%] | residual activity [11] [%] | inhibition (Neutrophil) | residual activity [12] [%] | residual activity [13] [%] | residual activity [14] [%] |
| --- | --- | --- | --- | --- | --- | --- | --- | --- | --- | --- | --- | --- | --- | --- | --- | --- | --- |
| Cc1cc(-c2cnc(N)c3c(-c4ccc5scnc5c4)csc23)n(C)n1 | 103 | 106 | 87.9 | 40.9 | 94.9 | Active | 91.3 | 101 | 8.67 | 98.4 | 97.4 | 87.7 | 101 | Active | 102 | 98.9 | 99 |
| CNC(=O)c1ccc2c(c1)ncn2-c1ccc(CC(=O)OC(C)(C)C)cc1 | 97.1 | 89.9 | 91.6 | 95.8 | 101 | inactive | 95.5 | 93.7 | 29.9 | 98.5 | 95 | 87.7 | 96.4 | Active | 87.5 | 91.3 | 102 |
| CC(C)S(=O)(=O)c1ccc2nccc(Nc3ccc4scnc4c3)c2c1 | 96 | 98.5 | 98.4 | 91.5 | 97.7 | Active | 88.3 | 97.1 | 10.8 | 96.4 | 92.1 | 92.3 | 96.3 | Active | 88.3 | 97.6 | 103 |
